The source of these data is patent publication US10167256B2, “Psychotrophic agents and uses thereof” (LB PHARMACEUTICALS INC., priority 2016, dated 2019).

Broadly, the Papp is the rate of passage across a membrane or cell layer, normalised by area and donor concentration. A low value points to poor permeation. As usually defined, the IC50 is the point on the concentration scale where inhibition reaches its midpoint. In general, Ki refers to the dissociation constant of the complex between target and ligand, obtained from inhibition or displacement.

SMILES strings stand for the structures.

In one data set the target is D5 receptor (Homo sapiens (Human), UniProt P21918). Conditions: cited from earlier work.
For data set [1], the system named is histamine receptor subtypes. The note with it: cited from earlier work.
Data set [2] relates to alpha-adrenergic receptor subtypes. Conditions: cited from earlier work.
The next data set in a line: in vitro. Conditions: PAMPA. Background: The PAMPA barrier holds no transporters, so it reflects passive diffusion.
A further data set concerns the target 5-HT2a receptor (Homo sapiens (Human), UniProt P28223). Conditions: cited from earlier work.
For data set [3] the following is noted: PAMPA.
The target of the next data set is D4 receptor (Homo sapiens (Human), UniProt P21917). The note with it: cited from earlier work.
A further data set concerns sigma sites. Conditions: cited from earlier work.
The next data set deals with muscarinic receptors. The note with it: cited from earlier work.
For data set [4] the following is noted: 2014 study, 30 psychiatric drugs; cited from earlier work.
For data set [5], the system named is serotonin receptor subtypes. Conditions: cited from earlier work.
The next data set addresses D1 receptor (Homo sapiens (Human), UniProt P21728). Conditions: cited from earlier work.
The test system of data set [6] is rats dosed with amphetamine. The experiment in a line: Amphetamine-induced Locomotor Activity (LMA) assay. The data set is classed as in vivo. Conditions: 30 mg/kg orally, 6 hours post dosing, total ambulatory distance over 1 hour. As to the method: Efficacy of Compounds 102 and 103 was studied in rats in an amphetamine-induced Locomotor Activity (LMA) assay, a measure of positive aspects of the PANSS scale. In the LMA assay rats were dosed with amphetamine (Amp, 1 mg/kg, s.c.), causing excessive movement, in a cage with sensors that monitored how far each rat moved.
Distance moved, over the course of an hour, was measured 6 hours post dosing for Compounds 102 and 103 and amisulpride-risperidone was dosed 1 hour prior to measurement. The endpoint of this study was total ambulatory distance (the distance traveled by each animal in the cage). Total ambulatory distance data from this amphetamine induced LMA study are summarized in FIG. 2 (*: p<0.01; *: p<0.05).

Data set [7] addresses T1, dopamine D2 receptors (Homo sapiens (Human), UniProt P14416). The experiment in a line: Dopamine D2 receptor cell-based assay (calcium fluorescence, dopamine at EC80).
Protocol: Dopamine D2 receptor cells were seeded in a half a black, clear-bottomed 96 well plate. At a density of 15,000 cells/well to a volume of 25 μL and were left to incubate overnight. Calcium 5 dye in HEPES buffered HBSS (Hanks' balanced salt solution) was prepared and 10 μL was added to each well and the mixture was left to sit at 37° C. for 1 hour. After equilibration, 5 μL of the test compound and controls were added to the wells and incubated at room temperature for 10 minutes.
The next data set deals with 5-HT2a (agonist) (Homo sapiens (Human), UniProt P28223). The experiment in a line: Reference ligand displacement, 5-HT2A (agonist). The data set is classed as binding. The note with it: DOI. As to the method: (§1) The ability of Compound 102 and 103 to bind α2 (non-selective), α2A, α2B, α2C, 5-HT2A (agonist), 5-HT2A (antagonist), D2L, D2S, and D3 was measured at concentrations ranging from 10×10^−5 to 10×10^−9 M and measuring displacement of reference ligands (prazosin for α2 (non-selective), yohimbine for α2A, α2B and α2C, DOI ([2,5-dimethoxy-4-iodophenyl]-2-aminopropane) for 5-HT2A (agonist), ketanserine for 5-HT2A (antagonist), butaclamol for D2L, 7-OH-DPAT for D2S, and (+) blutaclamol for D3). bound to the respective isolated receptor.

The next data set deals with α-2A(h) (Homo sapiens (Human), UniProt P08913). The experiment in a line: Reference ligand displacement, α2A. The data set is classed as binding. The note with it: yohimbine. How it is done:
as §1

The next data set concerns the target α-2B(h) (Homo sapiens (Human), UniProt P18089). The experiment in a line: Reference ligand displacement, α2B. The data set is classed as binding. Conditions: yohimbine. As to the method:
as §1

Another data set deals with D2L (Homo sapiens (Human), UniProt P14416). The experiment in a line: Reference ligand displacement, D2L. The data set is classed as binding. The note with it: butaclamol. As to the method:
as §1

For another data set, the target named is D2S (Homo sapiens (Human), UniProt P14416). The experiment in a line: Reference ligand displacement, D2S. The data set is classed as binding. The note with it: 7-OH-DPAT. As to the method: as §1
For another data set, the target named is D3 (Homo sapiens (Human), UniProt P35462). The experiment in a line: Reference ligand displacement, D3. It is filed as binding. The note with it: (+) butaclamol. How it is done: as §1
The next data set has as its target α2 (non-selective). The experiment in a line: Reference ligand displacement, α2 (non-selective). It is filed as binding. The note with it: α-2A (non-selective); reference ligand prazosin. As to the method:
as §1

A further data set deals with α-2C(h) (Homo sapiens (Human), UniProt P18825). The experiment in a line: Reference ligand displacement, α2C. It is filed as binding. Conditions: yohimbine. How it is done:
as §1

For a further data set, the target named is 5-HT2a (antagonist) (Homo sapiens (Human), UniProt P28223). The experiment in a line: Reference ligand displacement, 5-HT2A (antagonist). The data set is classed as binding. Conditions: ketanserine. How it is done: as §1
For data set [8], the target named is T1, dopamine D2 receptors. The experiment in a line: Dopamine D2 receptor membrane preparation, 3H spiperone binding. The note with it: membrane based assay, 0.1 nM 3H spiperone. As to the method: Radioactivity was measured using a Packard Topcount.
Another data set addresses 5-HT7 (Homo sapiens (Human), UniProt P34969). The experiment in a line: Reference ligand displacement, 5-HT7. The data set is classed as binding.
The next data set relates to PCP-treated rats. The experiment in a line: Novel Object Recognition (NOR) assay, sub-chronic PCP. It is filed as in vivo. The note with it: PO; for difference between novel and familiar object exploration time: 3 hours post-dose, all doses save one; for known object exploration behavior in rats treated with PCP: compared with untreated rats, amisulpride and risperidone. How it is done:
Efficacy of Compounds 102 and 103 was evaluated in rats in a Novel Object Recognition (NOR) assay, a well-established model recapitulating cognitive and negative aspects of the PANSS scale of schizophrenia. In this assay, animals were treated for several weeks with a low dose of phencyclidine (PCP) to impair the ability of the rat to discern between novel and familiar objects. Typically rats, like humans, would spend more time exploring a novel object than a familiar one.
Rats (n=10/group) were dosed with 2 mg/kg intraperitoneal twice a day (i.p., b.i.d.) for seven days followed by 7 days drug free. […] Novel object exploration time was measured for the test subjects from a sub-chronic PCP NOR study in rats (n=10/group). The differences in exploration time between novel (Tnovel¬) and familiar (Tfamliar) objects are depicted in FIG. 1A (*: p<0.05; and *: p<0.01).

D2L, sequence (P14416 whole entry): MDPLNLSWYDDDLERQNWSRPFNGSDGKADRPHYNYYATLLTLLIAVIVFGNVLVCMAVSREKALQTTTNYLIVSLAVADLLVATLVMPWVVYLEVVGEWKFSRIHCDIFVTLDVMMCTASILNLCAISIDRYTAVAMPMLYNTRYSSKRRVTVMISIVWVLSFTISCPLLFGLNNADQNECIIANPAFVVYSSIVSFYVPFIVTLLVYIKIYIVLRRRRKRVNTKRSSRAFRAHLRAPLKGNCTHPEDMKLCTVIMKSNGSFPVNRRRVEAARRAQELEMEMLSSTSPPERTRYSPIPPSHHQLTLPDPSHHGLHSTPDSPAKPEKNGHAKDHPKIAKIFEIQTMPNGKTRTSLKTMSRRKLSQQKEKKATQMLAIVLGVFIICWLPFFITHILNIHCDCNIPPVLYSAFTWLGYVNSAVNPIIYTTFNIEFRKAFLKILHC
D3, sequence (P35462 whole entry): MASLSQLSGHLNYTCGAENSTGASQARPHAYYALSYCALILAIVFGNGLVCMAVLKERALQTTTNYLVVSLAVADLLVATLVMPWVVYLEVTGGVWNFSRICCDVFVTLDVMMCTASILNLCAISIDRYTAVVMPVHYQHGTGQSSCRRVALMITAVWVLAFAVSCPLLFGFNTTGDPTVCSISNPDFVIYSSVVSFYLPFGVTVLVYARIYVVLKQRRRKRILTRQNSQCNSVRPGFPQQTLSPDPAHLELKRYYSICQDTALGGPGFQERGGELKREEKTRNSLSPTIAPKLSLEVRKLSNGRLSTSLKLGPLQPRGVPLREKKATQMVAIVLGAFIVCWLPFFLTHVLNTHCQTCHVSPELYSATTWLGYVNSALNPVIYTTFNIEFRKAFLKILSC
5-HT2a (antagonist), sequence (P28223 whole entry, species assumed): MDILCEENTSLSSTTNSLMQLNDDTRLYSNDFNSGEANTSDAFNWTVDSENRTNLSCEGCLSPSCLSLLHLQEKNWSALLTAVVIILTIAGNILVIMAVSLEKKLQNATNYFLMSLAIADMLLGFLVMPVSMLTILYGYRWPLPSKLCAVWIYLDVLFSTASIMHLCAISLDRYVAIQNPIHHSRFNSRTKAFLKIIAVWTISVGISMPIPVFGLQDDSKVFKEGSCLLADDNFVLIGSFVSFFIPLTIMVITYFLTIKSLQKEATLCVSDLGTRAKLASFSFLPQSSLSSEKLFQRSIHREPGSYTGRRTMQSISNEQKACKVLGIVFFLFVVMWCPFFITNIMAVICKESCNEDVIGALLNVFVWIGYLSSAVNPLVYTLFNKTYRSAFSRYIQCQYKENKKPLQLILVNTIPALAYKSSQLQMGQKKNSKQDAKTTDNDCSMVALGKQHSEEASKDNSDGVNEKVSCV
5-HT2a (agonist), sequence (P28223 whole entry, species assumed): as above
D2S, sequence (P14416 other isoform, or with tags, fused parts or gaps): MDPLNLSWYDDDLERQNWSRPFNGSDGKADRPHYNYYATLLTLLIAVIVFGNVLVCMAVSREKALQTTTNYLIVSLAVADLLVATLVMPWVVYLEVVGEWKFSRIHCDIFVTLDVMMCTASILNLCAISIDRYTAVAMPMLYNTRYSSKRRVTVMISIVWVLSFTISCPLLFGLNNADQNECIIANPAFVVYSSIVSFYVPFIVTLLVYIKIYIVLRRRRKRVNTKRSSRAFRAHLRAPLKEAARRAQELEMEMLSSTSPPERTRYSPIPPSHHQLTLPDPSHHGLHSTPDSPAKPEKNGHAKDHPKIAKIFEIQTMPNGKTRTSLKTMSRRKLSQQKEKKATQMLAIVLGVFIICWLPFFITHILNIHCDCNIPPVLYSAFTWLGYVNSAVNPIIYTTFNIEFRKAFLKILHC
α-2C(h), sequence (P18825 whole entry): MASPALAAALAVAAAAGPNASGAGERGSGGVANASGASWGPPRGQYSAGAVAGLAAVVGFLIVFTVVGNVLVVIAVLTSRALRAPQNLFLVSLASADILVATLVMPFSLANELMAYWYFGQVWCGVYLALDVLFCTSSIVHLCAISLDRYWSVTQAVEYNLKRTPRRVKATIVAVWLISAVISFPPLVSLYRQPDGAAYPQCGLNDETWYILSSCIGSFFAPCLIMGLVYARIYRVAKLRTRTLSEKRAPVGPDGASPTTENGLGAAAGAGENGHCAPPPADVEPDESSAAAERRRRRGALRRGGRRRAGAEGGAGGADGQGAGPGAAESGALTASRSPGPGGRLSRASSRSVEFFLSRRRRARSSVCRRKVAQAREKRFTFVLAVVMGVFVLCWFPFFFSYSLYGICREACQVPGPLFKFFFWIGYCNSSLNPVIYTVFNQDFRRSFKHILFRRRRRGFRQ
T1 sequence (P14416 whole entry): as the sequence (P14416 whole entry) above
α-2A(h), sequence (P08913 whole entry): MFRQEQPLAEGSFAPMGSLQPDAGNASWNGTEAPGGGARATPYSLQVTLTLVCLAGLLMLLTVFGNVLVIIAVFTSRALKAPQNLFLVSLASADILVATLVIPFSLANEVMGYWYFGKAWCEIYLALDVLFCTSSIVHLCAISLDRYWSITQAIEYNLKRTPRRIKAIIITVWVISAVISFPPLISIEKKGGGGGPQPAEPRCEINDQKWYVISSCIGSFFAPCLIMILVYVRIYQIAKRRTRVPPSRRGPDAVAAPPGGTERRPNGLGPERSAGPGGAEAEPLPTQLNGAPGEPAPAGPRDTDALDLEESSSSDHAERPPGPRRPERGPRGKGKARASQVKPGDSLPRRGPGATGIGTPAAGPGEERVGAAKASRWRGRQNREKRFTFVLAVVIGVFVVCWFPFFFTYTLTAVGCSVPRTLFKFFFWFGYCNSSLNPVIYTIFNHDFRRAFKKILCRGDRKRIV
5-HT7, sequence (P34969 whole entry, species assumed): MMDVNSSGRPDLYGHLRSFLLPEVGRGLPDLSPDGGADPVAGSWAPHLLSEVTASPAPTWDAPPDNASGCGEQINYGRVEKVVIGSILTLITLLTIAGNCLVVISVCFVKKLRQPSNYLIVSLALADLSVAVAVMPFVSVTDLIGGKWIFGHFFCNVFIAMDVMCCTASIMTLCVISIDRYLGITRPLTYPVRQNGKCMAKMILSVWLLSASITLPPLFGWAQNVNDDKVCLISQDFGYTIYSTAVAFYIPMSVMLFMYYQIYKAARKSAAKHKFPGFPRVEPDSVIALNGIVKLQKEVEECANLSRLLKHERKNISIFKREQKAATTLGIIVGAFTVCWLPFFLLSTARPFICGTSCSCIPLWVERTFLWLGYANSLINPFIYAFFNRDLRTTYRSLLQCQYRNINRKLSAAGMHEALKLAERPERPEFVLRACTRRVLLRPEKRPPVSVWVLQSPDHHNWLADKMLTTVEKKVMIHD
α-2B(h), sequence (P18089 whole entry): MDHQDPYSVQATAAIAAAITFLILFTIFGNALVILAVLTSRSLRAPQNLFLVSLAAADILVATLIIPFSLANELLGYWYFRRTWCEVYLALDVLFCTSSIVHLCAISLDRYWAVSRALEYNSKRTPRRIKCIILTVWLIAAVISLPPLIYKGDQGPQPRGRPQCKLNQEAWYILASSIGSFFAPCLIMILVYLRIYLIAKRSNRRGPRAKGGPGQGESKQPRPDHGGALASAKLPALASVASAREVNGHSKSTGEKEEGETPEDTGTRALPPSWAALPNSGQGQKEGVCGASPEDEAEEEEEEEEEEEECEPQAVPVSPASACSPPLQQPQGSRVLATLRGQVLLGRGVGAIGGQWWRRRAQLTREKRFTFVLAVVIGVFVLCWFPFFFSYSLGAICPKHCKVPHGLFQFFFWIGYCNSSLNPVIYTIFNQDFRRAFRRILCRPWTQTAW
D4 receptor, sequence (P21917 whole entry): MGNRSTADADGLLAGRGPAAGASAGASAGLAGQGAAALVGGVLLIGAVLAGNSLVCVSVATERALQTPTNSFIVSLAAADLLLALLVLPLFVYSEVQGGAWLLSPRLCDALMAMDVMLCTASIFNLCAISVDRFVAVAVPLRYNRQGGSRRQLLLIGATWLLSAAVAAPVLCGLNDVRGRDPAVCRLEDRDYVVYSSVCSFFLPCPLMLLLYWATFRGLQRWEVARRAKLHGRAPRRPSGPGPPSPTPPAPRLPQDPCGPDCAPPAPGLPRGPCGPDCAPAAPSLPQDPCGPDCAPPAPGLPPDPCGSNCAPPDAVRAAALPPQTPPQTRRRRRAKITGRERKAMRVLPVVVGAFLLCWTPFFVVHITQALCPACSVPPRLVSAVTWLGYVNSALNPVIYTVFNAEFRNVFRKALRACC
D1 receptor, sequence (P21728 whole entry): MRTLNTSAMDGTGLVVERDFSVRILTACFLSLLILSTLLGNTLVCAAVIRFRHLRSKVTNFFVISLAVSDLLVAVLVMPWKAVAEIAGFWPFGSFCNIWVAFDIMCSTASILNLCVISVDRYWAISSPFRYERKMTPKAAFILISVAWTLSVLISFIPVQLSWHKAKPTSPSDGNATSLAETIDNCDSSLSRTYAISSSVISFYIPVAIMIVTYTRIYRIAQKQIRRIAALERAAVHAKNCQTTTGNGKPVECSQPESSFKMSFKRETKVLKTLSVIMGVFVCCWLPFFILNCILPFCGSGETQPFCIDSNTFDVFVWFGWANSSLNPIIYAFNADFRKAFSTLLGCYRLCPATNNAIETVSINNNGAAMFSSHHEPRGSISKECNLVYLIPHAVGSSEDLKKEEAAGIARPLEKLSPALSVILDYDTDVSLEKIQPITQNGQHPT

`CCN1CCCC1CNC(=O)c1cc(S(=O)(=O)CC)c(N)cc1OC` (stereo not shown) [Amisulpride, 4-amino-N-(((1-ethyl-2-pyrrolidinyl)methyl)-5-(ethylsulfonyl))-2-methoxybenzamide]: the “affinity for D5 receptor subtype” value on D5 receptor is “without any affinity”. Also, in data set [1], the “affinity for histamine receptor subtypes” value is on record as “low affinity”. For the same molecule, in data set [2], the “affinity for alpha-adrenergic receptor subtypes” value is on record as “low affinity”. Besides, the apparent permeability coefficient (Papp) in “in vitro” (pH 5) came to 0.00024 ×10⁻⁶ cm/s. Further, the “activity at the 5-HT2a receptor” value on 5-HT2a receptor is given as “not noted to have any activity”. The “Permeability (cm/s) pH 7.4” value in data set [3] is 2.4 × 10^−11 cm/s. Also, the “affinity for D4 receptor subtype” value on D4 receptor is recorded as “without any affinity”. For the same molecule, in the data set on sigma sites, the “affinity for sigma sites” value was “low affinity”. Also, in the data set on muscarinic receptors, the “affinity for muscarinic receptors” value is recorded as “low affinity”. The “passive diffusion across a PAMPA membrane (Pe)” value in [4] is “lowest of 30 psychiatric drugs tested”. Further, the “affinity for serotonin receptor subtypes” value in data set [5] is reported as “low affinity”. For the same molecule, the “affinity for D1 receptor subtype” value on D1 receptor is recorded as “without any affinity”.

As to `CCN1CCCC1CNC(=O)c1cc(S(=O)(=O)CC)c(NC)cc1OC` (stereo not shown) [Compound 102], in data set [6], the “normalized amphetamine hyperactivity compared to amisulpride” value is listed as “statistically superior to that of amisulpride”. Further, the IC50 on dopamine D2 receptors [7] stood at 8.9 nM; at 5-HT2a (agonist), 270 nM; at α-2A(h) it was 480 nM; on α-2B(h), 170 nM; on D2L it was 2.7 nM; on D2S it was 8.4 nM. Also, the half-inhibitory concentration (IC50) at D3 was 11 nM; at α2 (non-selective), 95 nM; at α-2C(h), 790 nM; on 5-HT2a (antagonist) it was 890 nM; on dopamine D2 receptors [8] it was 8.2 nM; on 5-HT7 it was 74 nM. Besides, the Ki was determined as 200 nM at 5-HT2a (agonist); 220 nM at α-2A(h); 110 nM at α-2B(h); 0.66 nM at D2L; 3.4 nM at D2S; 2.5 nM on D3. In addition, the Ki on α2 (non-selective) came out at 41 nM; at α-2C(h), 240 nM; at 5-HT2a (antagonist), 490 nM; on 5-HT7 it was 27 nM. In addition, the values for the Papp in “in vitro” (pH 5) and in “in vitro” (pH 7.4) were 0.021 ×10⁻⁶ cm/s and 0.0052 ×10⁻⁶ cm/s, respectively. Further, the “difference between novel and familiar object exploration time” value with PCP-treated rats was “increased the difference between novel and familiar object exploration time”. Further, the “known object exploration behavior in rats treated with PCP” value with PCP-treated rats is recorded as “able to restore known object exploration behavior in rats treated with PCP to levels similar to untreated rats”.

In the case of `CCN1CCC[C@H]1CNC(=O)c1cc(S(=O)(=O)CC)c(NC)cc1OC` [Compound 103, ((S)-4-methylamino-N-((1-ethyl-2-pyrrolidinyl)methyl)-5-(ethylsulfonyl))-2-methoxybenzamide], the “normalized amphetamine hyperactivity compared to amisulpride” value in data set [6] was “statistically indistinguishable from that of amisulpride”. In addition, the IC50 on 5-HT2a (agonist) came out at 550 nM; at D2L it was 1.7 nM; on D2S, 1.4 nM; at D3, 5.5 nM; at α2 (non-selective), 150 nM; on 5-HT2a (antagonist), 980 nM. Further, the inhibition constant (Ki) on 5-HT2a (agonist) was determined as 410 nM; on D2L it was 0.41 nM; at D2S it was 0.56 nM; at D3 it was 1.2 nM; on α2 (non-selective), 6.7 nM; on 5-HT2a (antagonist), 530 nM. Further, in the data set with PCP-treated rats, the “difference between novel and familiar object exploration time” value is “increased the difference between novel and familiar object exploration time”. Besides, the “known object exploration behavior in rats treated with PCP” value in the data set on PCP-treated rats is recorded as “able to restore known object exploration behavior in rats treated with PCP to levels similar to untreated rats”.

On to `CC(C)NCC(O)COc1cccc2ccccc12` (stereo not shown) [Promanolol, propanolol], for which the Papp in the data set “in vitro” (pH 5) is 0.031 ×10⁻⁶ cm/s; in “in vitro” (pH 7.4), 7.8 ×10⁻⁶ cm/s.

As for `CNC(=C[N+](=O)[O-])NCCSCc1ccc(CN(C)C)o1` [Ranitidine, ranitidine], the “Permeability (cm/s) pH 5” value in [3] (pH 5) is 1.1 × 10^−10 cm/s. In data set [3], the “Permeability (cm/s) pH 7.4” value is 1.5 × 10^−10 cm/s.
